The source of these data is patent US10441590B2, “Methods for treating pulmonary hypertension” (Reviva Pharmaceuticals, Inc., priority 2015, dated 2019).

One test concerns the target Human recombinant D2S (Homo sapiens (Human), UniProt P14416). Briefly: Dopamine D2S radioligand binding assay.
For the next test, the target named is Human recombinant 5-HT1A (Homo sapiens (Human), UniProt P08908). Briefly: Serotonin 5HT1A radioligand binding assay.
The target of test [1] is Human Cortex or Human recombinant 5-HT2A (Homo sapiens (Human), UniProt P28223). Put plainly: Serotonin 5HT2A radioligand binding assay.
In the next test the target is Human recombinant 5-HT2B (Homo sapiens (Human), UniProt P41595). Put plainly: Serotonin 5HT2B radioligand binding assay.
The next test addresses Human recombinant 5-HT6 (Homo sapiens (Human), UniProt P50406). Briefly: Serotonin 5HT6 radioligand binding assay.
The target of another test is Human recombinant 5-HT7 (Homo sapiens (Human), UniProt P34969). Briefly: Serotonin 5HT7 radioligand binding assay.
Test [2] concerns monocrotaline-induced pulmonary arterial hypertension (PAH) in rats. Put plainly: Monocrotaline (MCT) induced pulmonary arterial hypertension rat model. The test is classed as in vivo. The conditions noted are these: for Body Weight gain / Diastolic pulmonary pressure / Lung weight / Mean pulmonary pressure / Oxygen saturation / Respiratory resistance / Right systolic ventricular pressure / Systolic pulmonary pressure: MCT rat, Day 0 to Day 27, Day 28. From the text: The purpose of this study was to assess the effect of the test articles on the monocrotaline-induced pulmonary arterial hypertension (PAH) in rats. The assay was designed to measure the pulmonary and systemic arterial blood pressures in anaesthetized rats with PAH induced by a single subcutaneous dose of monocrotaline. The results of the study are a quantitative measurement of the progression of the disease and its effects on the pulmonary arterial blood pressure (PAP), as well as wet organ weight in rats with induced PAH with and without treatment with test article or reference compound. Furthermore, a detailed morphometric and clinical investigation of the histology of the pulmonary vasculature was performed to correlate vascular remodeling with the functional impact of the onset of the PAH.
Male Wistar-Kyoto rats (Charles River Laboratories) weighing between 200 and 250 grams (approximately 10-12 week-old) were randomized across experimental groups, according to their body weight, with the aim of scheduling one animal per treatment group for each day of terminal surgery (when possible). […] Rats from treatment groups 2 to 4 received one subcutaneous injection of monocrotaline (MCT) solution (60 mg/kg) in DMSO on Day 0 and were returned to their cages. Rats from control group 1 received one subcutaneous injection of DMSO (vehicle for monocrotaline) on Day 0 and were returned to their respective cages. […] Food and water were given ad libitum. Daily observations of the behavior and general health status of the animals were done. Weekly blood draw, body weight and body temperature were taken.
On the day of surgery, the rats were anaesthetized, instrumented and hemodynamic parameters (systemic arterial blood pressure, right ventricular blood pressure, pulmonary arterial blood pressure, oxygen saturation, respiratory resistance, ventilatory pressure, respiration rate and heart rate) were recorded continuously for 5 minutes or until loss of quality in the pulmonary arterial pressure signal, whichever came first. The recordings included moving the pressure transducer from the right ventricular cavity to the pulmonary artery and back, observing the very clear transitions in diastolic pressures and general pressure waveforms as the catheter entered the artery, and was withdrawn into the ventricle. The rats were then exsanguinated and the pulmonary circulation was flushed with 0.9% NaCl. The trachea, lungs and heart were removed as a whole from the thoracic cavity. The right and left lobes of the lung were weighed before being perfused with 10% NBF and immersed in 10% formalin. The lungs were stored in 10% formalin at room temperature. The heart was excised to measure the wet weights of the right ventricle (RV) and left ventricle including the septum (LV-S) as part of the Fulton index calculation. Arterial blood pressure was recorded continuously throughout the experiment via an intra-arterial fluid-filled catheter (AD Instruments, Colorado Springs, Colo., USA). Diastolic and systolic pressures values were measured in mmHg using cursors readings in the Clampfit 10.2.0.14. Mean arterial blood pressure values were calculated using the following formula:
[formula] Values are presented as means±SEM (standard error of the means). Repeat unpaired Student's t-tests were performed in Microsoft Excel 2007 on all experimental conditions, comparing treatment groups to either the control, healthy animals, or the negative control animals (monocrotaline only). Differences were considered significant when p≤0.05. The study results are described in Table 2.

The test system of test [3] is Sugen-Hypoxia (SuHx) induced pulmonary arterial hypertension (PAH) in rats. Briefly: Sugen-hypoxia (SuHx) induced pulmonary arterial hypertension rat model. The class given is in vivo. Particulars: for Body Weight gain / Diastolic pulmonary pressure / Lung weight / Mean pulmonary pressure / Oxygen saturation / Respiratory resistance / Right systolic ventricular pressure / Systolic pulmonary pressure: SuHx rat, Day 14 to Day 34, Day 35. From the text: The assay was designed to measure the pulmonary arterial blood pressures in anaesthetized rats with PAH induced by a single subcutaneous dose of Sugen combined with three weeks in hypoxia. Combined with a macroscopic and morphometric histological examination of the tissues harvested from the animals, the results of the provide a quantitative measurement of the progression of the disease on the systemic arterial blood pressure, pulmonary arterial blood pressure, as well as wet organ weight and vascular remodeling in rats with SuHx-induced PAH treated with test article, vehicle, or reference compound.
Male Wistar-Kyoto rats (Charles River Laboratories) weighing between 200 and 250 grams (approximately 10-12 week-old) were randomized across experimental groups according to their body weight, with the aim of scheduling one rat per treatment group for each day of terminal surgery (when possible). […] Rats from Groups 2 to 4 (see Table 3) received a single subcutaneous injection of sugen (20 mg/kg) in DMSO on Day 0 and returned to their cages. Rats from Group 1 received one subcutaneous injection of DMSO (vehicle for sugen) on Day 0 and returned to their respective cages. Groups 2-4 were placed in cages for which the controlled air was adjusted to receive a FiO2 equivalent to 0.10 (10%) using a mixture of nitrogen and ambient air controlled by the ventilated cage system. They were kept under these hypoxic conditions for 21 days. While in hypoxia, cages were cleaned and changed every 48 hours, exposing the animals to ambient oxygen levels for less than 5 minutes per cleaning session. The animals were then exposed to ambient oxygen levels from Day 22 to Day 35. Group 1 animals remained in cages exposed to ambient oxygen levels for 35 days. The animals were observed on a daily basis for any changes in their behavior and general health status. […] Food and water were given ad libitum. Daily observation of the behavior and general health status of the animals was done. Weekly blood draws and body weights were taken. On the day of surgery, the rats were anaesthetized, instrumented and hemodynamic parameters (systemic arterial blood pressure, right ventricular blood pressure, pulmonary arterial blood pressure, oxygen saturation, respiratory resistance, ventilatory pressure, respiration rate and heart rate) were recorded continuously for 5 minutes or until loss of quality in the pulmonary arterial pressure signal, whichever came first. The recordings included moving the pressure transducer from the right ventricular cavity to the pulmonary artery and back, observing the very clear transitions in diastolic pressures and general pressure waveforms as the catheter entered the artery, and was withdrawn into the ventricle. The rats were then exsanguinated and the pulmonary circulation was flushed with 0.9% NaCl. The trachea, lungs and heart were removed as a whole from the thoracic cavity. The right and left lobes of the lung were weighed before being perfused with 10% NBF and immersed in 10% formalin. The lungs were stored in 10% formalin at room temperature. The heart was excised to measure the wet weights of the right ventricle (RV) and left ventricle including the septum (LV-S) as part of the Fulton index calculation.
Mean arterial blood pressure values and Fulton's index were calculated using the following formula as described above in Example 2. The study results are described in Table 4.

Counter-ions that a name gives are not always drawn. Like-named read-outs stand apart in the source and are kept apart here.

Sequence of Human Cortex or Human recombinant 5-HT2A (P28223 whole entry): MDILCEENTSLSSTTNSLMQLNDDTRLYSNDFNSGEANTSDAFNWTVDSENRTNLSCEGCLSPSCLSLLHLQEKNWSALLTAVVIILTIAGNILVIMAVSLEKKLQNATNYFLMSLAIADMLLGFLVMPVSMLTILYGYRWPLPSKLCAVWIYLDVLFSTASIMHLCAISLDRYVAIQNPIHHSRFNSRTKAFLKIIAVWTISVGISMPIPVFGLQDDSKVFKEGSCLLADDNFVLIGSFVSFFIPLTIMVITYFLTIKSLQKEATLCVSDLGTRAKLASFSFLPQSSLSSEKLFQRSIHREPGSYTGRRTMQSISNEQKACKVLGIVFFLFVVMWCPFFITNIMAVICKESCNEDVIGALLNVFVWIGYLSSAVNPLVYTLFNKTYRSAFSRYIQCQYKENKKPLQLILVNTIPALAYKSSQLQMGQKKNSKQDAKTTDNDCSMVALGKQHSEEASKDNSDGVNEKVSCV
Sequence of Human recombinant 5-HT6 (P50406 whole entry): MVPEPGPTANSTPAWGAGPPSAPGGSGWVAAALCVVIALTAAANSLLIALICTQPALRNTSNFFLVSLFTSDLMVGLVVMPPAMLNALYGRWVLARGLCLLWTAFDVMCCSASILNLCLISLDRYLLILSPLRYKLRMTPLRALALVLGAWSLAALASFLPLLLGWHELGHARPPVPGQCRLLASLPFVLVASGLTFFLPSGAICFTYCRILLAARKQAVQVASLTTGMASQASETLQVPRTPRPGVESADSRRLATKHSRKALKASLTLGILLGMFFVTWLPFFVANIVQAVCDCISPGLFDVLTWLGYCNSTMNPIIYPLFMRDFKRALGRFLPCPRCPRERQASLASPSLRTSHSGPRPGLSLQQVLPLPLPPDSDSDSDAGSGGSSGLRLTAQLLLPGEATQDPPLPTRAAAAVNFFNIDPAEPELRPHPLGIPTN
Sequence of Human recombinant 5-HT7 (P34969 whole entry): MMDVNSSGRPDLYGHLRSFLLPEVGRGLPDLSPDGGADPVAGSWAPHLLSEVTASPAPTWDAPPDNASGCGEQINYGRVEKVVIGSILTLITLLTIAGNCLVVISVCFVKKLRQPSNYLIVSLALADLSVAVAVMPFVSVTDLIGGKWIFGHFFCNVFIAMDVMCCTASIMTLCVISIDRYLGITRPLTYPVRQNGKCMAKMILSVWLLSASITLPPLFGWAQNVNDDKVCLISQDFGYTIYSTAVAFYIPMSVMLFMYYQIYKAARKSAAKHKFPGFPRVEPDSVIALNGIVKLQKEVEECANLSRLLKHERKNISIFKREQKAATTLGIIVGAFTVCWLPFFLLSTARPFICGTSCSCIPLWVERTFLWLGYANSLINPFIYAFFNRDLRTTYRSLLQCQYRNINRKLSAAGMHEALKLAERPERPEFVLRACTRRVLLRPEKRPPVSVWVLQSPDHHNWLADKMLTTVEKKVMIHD
Sequence of Human recombinant D2S (P14416 other isoform, or with tags, fused parts or gaps): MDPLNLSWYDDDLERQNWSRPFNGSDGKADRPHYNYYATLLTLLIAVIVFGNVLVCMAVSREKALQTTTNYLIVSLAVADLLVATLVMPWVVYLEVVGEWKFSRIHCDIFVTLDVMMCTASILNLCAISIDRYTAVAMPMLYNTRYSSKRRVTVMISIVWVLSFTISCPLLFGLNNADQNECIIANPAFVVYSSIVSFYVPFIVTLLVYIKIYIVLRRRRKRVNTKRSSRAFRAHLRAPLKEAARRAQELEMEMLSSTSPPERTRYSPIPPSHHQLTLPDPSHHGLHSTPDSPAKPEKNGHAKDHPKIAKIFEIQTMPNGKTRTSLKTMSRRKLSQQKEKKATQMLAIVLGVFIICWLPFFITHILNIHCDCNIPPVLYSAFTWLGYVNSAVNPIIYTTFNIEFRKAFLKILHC
Sequence of Human recombinant 5-HT2B (P41595 whole entry): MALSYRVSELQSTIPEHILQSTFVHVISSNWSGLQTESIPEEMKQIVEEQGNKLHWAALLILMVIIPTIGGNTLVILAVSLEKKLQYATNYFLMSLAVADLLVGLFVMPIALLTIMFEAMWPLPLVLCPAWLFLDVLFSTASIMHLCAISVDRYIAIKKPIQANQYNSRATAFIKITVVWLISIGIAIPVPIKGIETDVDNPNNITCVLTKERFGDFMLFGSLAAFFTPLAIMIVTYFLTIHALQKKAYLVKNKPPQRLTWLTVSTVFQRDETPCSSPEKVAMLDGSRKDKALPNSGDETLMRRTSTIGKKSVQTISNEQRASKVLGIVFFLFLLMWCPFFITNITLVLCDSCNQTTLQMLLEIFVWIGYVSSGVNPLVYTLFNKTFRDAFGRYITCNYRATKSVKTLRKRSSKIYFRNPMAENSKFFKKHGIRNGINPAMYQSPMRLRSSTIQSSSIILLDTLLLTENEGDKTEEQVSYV

For “6-(4-(4-(2-methoxyphenyl)piperazin-1-yl)butoxy)-2H-benzo[b][1,4]oxazin-3(-4H)-one hydrochloride [Compound A]”, the results for the Ki (at Human recombinant D2S; at Human recombinant 5-HT1A; in test [1]) were 0.3 nM, 0.65 nM and 118 nM, respectively.
Consider `O=C1COc2ccc(OCCCCN3CCN(c4cccc(Cl)c4Cl)CC3)cc2N1` [Compound B, 6-(4-(4-(2,3-dichlorophenyl)piperazin-1-yl)butoxy)-2H-benzo[b][1,4]oxazin-3(4H)-one hydrochloride], for which the inhibition constant Ki (usually the dissociation constant of the complex between target and ligand, obtained from inhibition or displacement) stood at 2.50 nM in test [1] (hydrochloride); 2.5 nM in test [1] (listed as compound B, hydrochloride); 0.19 nM on Human recombinant 5-HT2B; 51 nM at Human recombinant 5-HT6; 2.7 nM at Human recombinant 5-HT7. The “efficacy for PAH” value was “demonstrated efficacy for PAH” in test [2] (MCT induced PAH rat model, summary statement) and “demonstrated efficacy for PAH” in test [3] (SuHx induced PAH rat model, summary statement). In addition, the “Body Weight gain” value in test [2] (3 mg/kg bid oral gavage) was found to be 22.9 g; in test [2] (10 mg/kg bid oral gavage), 23.1 g; in test [3] (10 mg/kg bid oral gavage), 66.7 g; in test [3] (20 mg/kg bid oral gavage), 50.8 g. In addition, the Diastolic pulmonary pressure in test [2] (3 mg/kg bid oral gavage) was 19.2 mmHg; in test [2] (10 mg/kg bid oral gavage), 14.7 mmHg; in test [3] (10 mg/kg bid oral gavage) it was 15.3 mmHg; in test [3] (20 mg/kg bid oral gavage), 14.7 mmHg. Further, the Lung weight in test [2] (3 mg/kg bid oral gavage) is reported as 0.86%; in test [2] (10 mg/kg bid oral gavage), 0.86%; in test [3] (10 mg/kg bid oral gavage), 0.65%; in test [3] (20 mg/kg bid oral gavage) it was 0.62%. Further, the Mean pulmonary pressure in test [2] (3 mg/kg bid oral gavage) is recorded as 32.0 mmHg; in test [2] (10 mg/kg bid oral gavage), 24.1 mmHg; in test [3] (10 mg/kg bid oral gavage), 20.9 mmHg; in test [3] (20 mg/kg bid oral gavage) it was 20.4 mmHg. Also, the Oxygen saturation stood at 93.5% in test [2] (3 mg/kg bid oral gavage), 96.5% in test [2] (10 mg/kg bid oral gavage), 95.9% in test [3] (10 mg/kg bid oral gavage) and 96.9% in test [3] (20 mg/kg bid oral gavage). The Respiratory resistance in test [2] (3 mg/kg bid oral gavage) came out at 15.7; in test [2] (10 mg/kg bid oral gavage), 10.7; in test [3] (10 mg/kg bid oral gavage), 12.4; in test [3] (20 mg/kg bid oral gavage) it was 11.1. Besides, the “Right systolic ventricular pressure” value in test [2] (3 mg/kg bid oral gavage) stood at 58.4 mmHg; in test [2] (10 mg/kg bid oral gavage), 43.1 mmHg; in test [3] (10 mg/kg bid oral gavage) it was 32.8 mmHg; in test [3] (20 mg/kg bid oral gavage), 34.2 mmHg. Further, the Systolic pulmonary pressure is reported as 57.7 mmHg in test [2] (3 mg/kg bid oral gavage), 43.0 mmHg in test [2] (10 mg/kg bid oral gavage), 32.2 mmHg in test [3] (10 mg/kg bid oral gavage) and 32.0 mmHg in test [3] (20 mg/kg bid oral gavage). Also, the “severity of PAH (right ventricular hypertrophy, pulmonary artery pressure, respiratory resistance)” value in test [2] (MCT, summary statement) is “decreasing the severity of PAH”; in test [3] (SuHx, summary statement), “decreasing the severity of PAH”.
